These results are taken from patent publication US12613249B2 (THE ROYAL INSTITUTION FOR THE ADVANCEMENT OF LEARNING / …, priority 2019, dated 2026).

Data set [1] in a line: Ex-vivo stability in mouse plasma, MALDI-TOF MS. Type of data set: in vitro ADME, C57BL/6 mice. The note with it: 37° C., 24 h. The method, then:
The stability of D-AIP in mouse plasma, blood and liver S-9 fraction was investigated to ascertain the metabolic resistance towards proteases and enzymatic activities in these matrices. Whole mouse blood obtained from healthy C57BL/6 male and female mice (6 mice in total) were collected in lithium heparin containing tubes, pooled and stored at 4° C. prior to its use. A fraction of the pooled blood was immediately centrifuged at 1500×g for 10 min at 4° C. to obtain the plasma. The whole blood and plasma samples were spiked with PBS (as control) or AIP (L-AIP, D-AIP or sD-AIP respectively) to make a final concentration of 1 ug/mL and incubated at 37° C. Initial samples were withdrawn to represent t=0 prior to incubation and others were withdrawn 1, 3 and 24 h respectively. Fresh mouse liver also obtained from C57BL/6 male and female mice were pooled, homogenized in 0.15 M Potassium chloride (KCl) and centrifuged at 9000×g. […] The samples were then vigorously mixed for 30 s to facilitate extraction and centrifuged for 10 minutes at 13000 rpm, the supernatant was subjected to sample clean up by C18 ZipTip (EMD Millipore Corporation), the eluates were spotted with CHCA matrix on the ground steel MALDI-TOF target and analyzed with MALDI-TOF MS. […]

Data set [2] can be described thus: MALDI-TOF-MSI brain distribution. Type of data set: in vivo, C57BL/6 mice. Conditions: single oral dose 10 mg/kg, 4 h post-administration, sagittal brain sections. The method, then: Frozen brains were stored at −80° C. until needed for analysis. Serial sagittal brain sections (10 μm thick) obtained using a cryostat (Leica Microsystems CM1100, Wetzlar, Germany), were thaw mounted onto an indium tin oxide (ITO) coated glass slide (Bruker, Bremen, Germany). Glass slides were removed from deep freeze and immediately transferred to a vacuum desiccator. Following 12 h desiccation time, the slides were scanned using a flatbed scanner (HP LaserJet 3055). The α-cyano-4-hydroxy cinnamic acid (CHCA) matrix (10 mg/mL) was prepared in 50% acetonitrile (ACN) containing 0.1% trifluoroacetic acid (TFA). The matrix solution was sonicated for 10 min and centrifuged at 10 000 rpm for 10 min before transfer to the ImagePrep (Bruker Daltonics). […] A standard solution of D-AIP (1 μg/mL was analyzed using matrix assisted laser desorption ionization time of flight mass spectrometry (MALDI TOF MS) operated both at reflectron and MALDI MS/MS (LIFT) modes respectively with the aid of the UltraflExtreme MALDI TOF/TOF 2 KHz smartbeam laser (Bruker Daltonics, Bremen, Germany) and FlexControl acquisition software ran in positive ion mode. The instrument was calibrated using standard peptide mix spotted with CHCA matrix on the ground steel target (Bruker Daltonics, Bremen, Germany) for 500-1500 m/z. Each spectrum was acquired from 500 laser shots. […]

A short description of data set [3]: Tolerability of single oral doses. Conditions: single oral doses of 10, 30 and 100 mg/kg, female and male mice. In kind it is in vivo, C57BL/6 mice. An excerpt: Animal care and all animal experiments were undertaken with federal guidelines and approval of the Institutional Animal Ethical Committee of McGill University, Montreal, Canada (Protocol Application Number: 2017-7880) and adequate measures were taken to minimize pain or discomfort. C57BL/6 mice were purchased from Charles River laboratories, a total of 144 healthy (7-9 weeks old) male and female (20-25 g) were grouped accordingly and housed in polycarbonate cages, (three mice per cage per sex) in air-conditioned rooms with a 12 h light/dark cycle. Animals were allowed unlimited access to drinking water and standard mouse chow during the study. Animals (n=3) were orally dosed with D-AIP using an oral gavage at 10, 30 and 100 mg/kg respectively prepared in phosphate buffered saline (PBS). […] Pharmacokinetic parameters area under the curve (AUC), maximum concentration reached (Cmax), time at which maximum concentration is reached (Tmax). elimination rate constant (A), elimination half-life (t1/2), apparent total clearance from plasma after oral administration (CI/F), apparent volume of distribution (Vd) and mean residence time (MRT) were calculated using PKSolver, a freely available menu-driven add-in program for Microsoft Excel written in Visual Basic for Applications (VBA), for solving problems in pharmacokinetics.

Square brackets hold non-standard residues; d marks the D form. Peptide text beside a SMILES is read from it.

Turning to `C[C@H](O)[C@@H](NC(=O)CNC(=O)[C@H](N)CCCNC(=N)N)C(=O)N[C@H](Cc1ccccc1)C(=O)N[C@H](CCC(=O)O)C(=O)NCC(=O)N[C@H](CCCCN)C(=O)N[C@H](Cc1ccccc1)C(=O)O` [D-AIP] (H-[dR]G[dT][dF][dE]G[dK][dF]-OH; N-terminus and C-terminus assumed), the “stability, MALDI-TOF MS signal (941 m/z)” value in data set [1] is on record as “relatively stable over 24 h”. For the same compound, in data set [2], the brain distribution entry was “distributed across cortex, hippocampus, thalamus and different other brain regions”. Moreover, the tolerability entry in data set [3] was “well-tolerated with no detectable vital signs of abnormalities”.
